Experimental findings from patent US20250017938A1, “COMBINATION THERAPIES OF FASN INHIBITORS WITH THYROID HORMONE RECEPTOR AGONISTS” (Sagimet Biosciences Inc., priority 2023, published 2025) are described below.

Common to all, as to assay type: cell-based
Assay [1] concerns 3D InSight Human Liver Microtissues. Kind of assay: 3D InSight Human Liver Microtissues, DNL condition, intratissue triglyceride content (7 days). How it is done:
After a 7 day treatment with dosings at days 0, 2 and 5, intratissue lipid accumulation was measured using Triglyceride-Glo™ Assay (Promega). In addition, metabolic activity of the treated Liver Microtissues (MTs) and cytotoxicity were assessed by measurement of ATP content at day 7 of treatment (CellTiter-Glo® 2.0 Cell Viability Assay, Promega) and LDH release between days 0-2, days 2-5 and days 5-7 (LDH-Glo™ Cytotoxicity Assay, Promega), respectively. Leftover supernatant collected on treatment days 2, 5 and 7 were stored frozen for further analysis. […] Experimental readout measurements comprised collection and freezing of supernatants for LDH measurement on days 2, 5 and 7. Measurement of LDH released into supernatant was analyzed using an LDH-Glo™ Cytotoxicity Assay (Promega). Measurement of ATP content in single MTs after 7 days of treatment with was analyzed using a Cell Titer Glo™ 2.0 Cell Viability Assay (Promega). Measurement of intratissue triglyceride (TG) content after 7 days of treatment was analyzed using a Triglyceride-Glo™ Assay (Promega). […] Total TG content in MTs at day 7 of treatment was measured with Triglyceride-Glo™ Assay (Promega), according to InSphero AG protocol. The amount of glycerol/MT [pmol/MT] was calculated using linear regression to a standard curve. […]

The test system of assay [2] is human precision cut liver slices. In words: Precision cut liver slice (PCLS) in vitro human NASH model, soluble outputs (collagen 1α1, IL-6, TIMP-1 ELISA). How it is done: PCLSs were prepared from resected liver tissue and rested for 24 hours to allow the post-slicing stress period to elapse before experiments began. […] PCLS culture media, including lipids and compounds, was refreshed at 24 hrs intervals. […] PCLSs were prepared from an n=1 individual human liver. The human livers are normal margins of near-to-normal human liver obtained during a surgical resection. Tissue culture supernatant (n=3 or n=4 per group) were collected every 24 hrs and snap frozen for quantification of the soluble outputs described below. At harvest, n=2 PCLSs were harvested for a triglyceride assay, n=2 PCLSs were harvested for frozen sections (Oil Red O staining), n=2 PCLSs were formalin-fixed, paraffin embedded (FFPE) for immunohistochemistry, and n=2 PCLSs were snap frozen for RNA isolation (Table 4, Groups 1˜4 only).

For assay [3], the system named is primary isolated human stellate cells (HSC). In words: Primary human hepatic stellate cells stimulated with TGF-β1, total collagen (in vitro fibrosis study).
Method: Primary isolated human stellate cells (HSC) were investigated in the study. The cells were maintained under standard culture conditions and in established culture medium.
Study Model: Viability screening and in vitro fibrosis study, 24 well plate format, 4 day stimulation with recombinant human TGF-β1. In this study, 2.5 and 10 ng/ml TGF-β1 were used.
Primary HSCs were seeded on t=day-1 and cultured in 24 well plates for 24 hours. […] Cells were incubated for an additional 96 hours (t=day 4). Conditioned medium samples were collected for expression analysis of secreted proteins. All wells were used for an alamarBlue assay to assess cell viability/metabolic activity. A separate plate was used at t=day 0 as reference for the alamarBlue assay. Next, the cell-matrix fraction was collected for measurement of total collagen and cell protein levels.
Both test compounds were dissolved in DMSO. Working concentrations were prepared from a stock concentration that is 1000-fold that of the highest working concentration. All controls were incubated with the same DMSO concentration as that present in the highest working concentration.
Total Collagen assay was performed according to the manufacturer's protocol.
Total Protein assay, for use with the Total Collagen assay, was performed according to the manufacturer's protocol. Protein levels were used to correct for differences in cell contents between samples.
Significance of differences between the groups was calculated either parametrically or non-parametrically, using the computer program SPSS. For nonparametric calculations, a Kruskal-Wallis test for several independent samples was used, followed by a Mann-Whitney U-test for independent samples. For parametric calculations, a One-way ANOVA for multiple comparisons was used, followed by Dunnett or Bonferroni's correction.
Assay [4] relates to 3D InSight Human Liver Microtissues (NASH condition). Kind of assay: 3D InSight Liver NASH model, intratissue triglyceride content (10 days). As to the method:
[…]. InSphero's 10-day NASH treatment scheme was applied with compound dosing at days 0, 3, 5 and 7 of treatment. […]. At day 5 of treatment, secreted cytokine levels were measured (LUMINEX™), at days 7 and 10 released procollagen 1 was quantified and at day 10 of treatment intratissue triglyceride content was determined. The release of lactate dehydrogenase (LDH) into culture supernatant was measured at days 3, 5, 7 and 10, in order to detect possible cytotoxicity caused by the treatments. After first data evaluation, released procollagen 3 was measured in supernatants of selected day 10 samples. […]
Cells were dosed on days 0, 3, 5 and […]. Experimental readout measurements comprised collection and freezing of supernatants for LDH measurement on days 3, 5, 7 and 10. Measurement of LDH released into supernatant was analyzed using an LDH-Glo™ Cytotoxicity
Assay (Promega). Measurement of intratissue triglyceride (TG) content after 10 days of treatment was analyzed using a Triglyceride-Glo™ Assay (Promega). […] Measurement of IL-6, IL-8, IP-10, MCP-1, MIP-1α and TNF-α content was analyzed using Magnetic Luminex® Performance Assay, Human XL Cytokine Discovery Base Kit (R&D systems).
. Total TG content in MTs at day 10 of treatment was measured with Triglyceride-Glo™ Assay (Promega), according to InSphero AG protocol. […]

SMILES strings stand for the structures. “Also recorded” adds a separate entry of the source.

Take `Cc1nc(-c2cc(C(=O)N3CCC(c4ccc(C#N)cc4)CC3)c(C)cc2C2CCC2)n[nH]1` [Compound 001-152, 4-(1-(4-Cyclobutyl-2-methyl-5-(5-methyl-4H-1,2,4-triazol-3-yl)benzoyl)piperidin-4-yl)benzonitrile]: in assay [1], the “intratissue Triglyceride content” value is listed as “reduces cellular triglycerides”. Further, the “fibrosis marker collagen 1α1 in culture supernatant” value in assay [2] is “dose and time-dependent decrease”. The collagen production result in assay [3] is given as “inhibits collagen production directly; also recorded: inhibits as effectively as positive control Alk5 inhibitor”. The “intratissue Triglyceride content (NASH-induced)” value in assay [4] is “reduced cellular triglycerides”.
